Measurements taken from publication PMC10304291, “THC-Reduced Cannabis sativa L.—How Does the Solvent Determine the Bioavailability of Cannabinoids Given Orally?” (Nutrients, 2023).

Assays:
[1] = Brain pharmacokinetics of CBD and THC after single oral dose of Cannabis sativa extract; details: for mean concentration over time / Kp / concentration at 0.5 h / concentration at 1 h / concentration at 2 h / concentration at 4 h / concentration at 6 h / AUC(0-t) / Cmax / MRT: single oral dose of extract 30 mg/kg; for mean concentration over time: Table 7; for Kp: brain / whole blood, AUCbrain:AUC whole blood (AUC0–24 ratio); for concentration at 0.5 h / concentration at 1 h / concentration at 2 h / concentration at 4 h / concentration at 6 h: oral; for AUC(0-t): AUC0–24, brain
[2] = 12 healthy volunteers; chocolate cookies with 0.57 mg/kg CBD + 0.28 mg/kg THC; after 1.5–3 h; cited from earlier work
[3] = rats; 3 or 6 h after oral CBD 50 mg/kg in olive oil; cited from earlier work
[4] = Whole-blood pharmacokinetics of CBD and THC after single oral dose of Cannabis sativa extract; details: whole blood, single oral dose of extract 30 mg/kg; for concentration at 0.5 h / concentration at 1 h / concentration at 2 h / concentration at 4 h / concentration at 6 h / concentration at 24 h / AUC(0-t) / Cmax / MRT / Tmax: male, Wistar, rat, 30 mg/kg; for concentration at 0.5 h / concentration at 1 h / concentration at 2 h / concentration at 4 h / concentration at 6 h / concentration at 24 h: oral; for AUC(0-t) / Cmax / MRT / Tmax: po; for AUC(0-t): AUC0–24, whole blood
[5] = mini-pigs; oral CBD 15 mg/kg; cited from earlier work
[6] = male, Wistar, rat, brain, po, 30 mg/kg, Cremophor
[7] = male, Wistar, rat, brain, po, 30 mg/kg, Rapae oleum
[8] = Mean Concentration ± SD, blood, Rapae oleum
[9] = Mean Concentration, blood, Cremophor
[10] = mean concentration over time, Blood/Cremophor, Table 7
[11] = mean concentration over time, Blood/Rapae Oleum, Table 7

CCCCCc1cc(O)c2c(c1)OC(C)(C)[C@@H]1CCC(C)=C[C@@H]21 [THC, Δ-9-tetrahydrocannabinol]
mean concentration over time ([1]; Brain/Cremophor, 0.5 h): 18.575
mean concentration over time ([1]; Brain/Cremophor, 1 h): 49.521
mean concentration over time ([1]; Brain/Cremophor, 2 h): 56.85
mean concentration over time ([1]; Brain/Cremophor, 4 h): 35.976
mean concentration over time ([1]; Brain/Cremophor, 6 h): 35.947
mean concentration over time ([1]; Brain/Cremophor, 24 h): 1.154
mean concentration over time ([1]; Brain/Rapae oleum, 0.5 h): 3.719
mean concentration over time ([1]; Brain/Rapae oleum, 1 h): 43.593
mean concentration over time ([1]; Brain/Rapae oleum, 2 h): 75.768
mean concentration over time ([1]; Brain/Rapae oleum, 4 h): 27.792
mean concentration over time ([1]; Brain/Rapae oleum, 6 h): 3.7605
mean concentration over time ([1]; Brain/Rapae oleum, 24 h): 0
Kp ([1]; male, Wistar, rat, po, 30 mg/kg, Cremophor): 1.22
Kp ([1]; male, Wistar, rat, po, 30 mg/kg, Rapae oleum): 3.72
concentration at 0.5 h ([1]; male, Wistar, rat, brain, 30 mg/kg, Mean Concentration ± SD, Rapae oleum, 0.5 h): 3.72 ± 2.35 ng/g
concentration at 1 h ([1]; male, Wistar, rat, brain, 30 mg/kg, Mean Concentration ± SD, Rapae oleum, 1 h): 43.6 ± 24.8 ng/g
concentration at 2 h ([1]; male, Wistar, rat, brain, 30 mg/kg, Mean Concentration ± SD, Rapae oleum, 2 h): 75.8 ± 43.8 ng/g
concentration at 4 h ([1]; male, Wistar, rat, brain, 30 mg/kg, Mean Concentration ± SD, Rapae oleum, 4 h): 27.8 ± 15.2 ng/g
concentration at 6 h ([1]; male, Wistar, rat, brain, 30 mg/kg, Mean Concentration ± SD, Rapae oleum, 6 h): 3.76 ± 2.61 ng/g
concentration at 0.5 h ([1]; male, Wistar, rat, brain, 30 mg/kg, Mean Concentration, Cremophor, 0.5 h): 18.6 ± 11.6 ng/g
concentration at 1 h ([1]; male, Wistar, rat, brain, 30 mg/kg, Mean Concentration, Cremophor, 1 h): 49.5 ± 9.47 ng/g
concentration at 2 h ([1]; male, Wistar, rat, brain, 30 mg/kg, Mean Concentration, Cremophor, 2 h): 56.9 ± 7.39 ng/g
concentration at 4 h ([1]; male, Wistar, rat, brain, 30 mg/kg, Mean Concentration, Cremophor, 4 h): 36 ± 7.45 ng/g
concentration at 6 h ([1]; male, Wistar, rat, brain, 30 mg/kg, Mean Concentration, Cremophor, 6 h): 35.9 ± 12.7 ng/g
Tmax ([1]; male, Wistar, rat, brain, po, 30 mg/kg): 4 h
AUC(0-t) [1, 6]: 656 ng·h/mL
AUC(0-t) [1, 7]: 553 ng·h/mL
Cmax [1, 6]: 56.9 ng/g
Cmax [1, 7]: 75.8 ng/g
MRT [1, 6]: 5.11 h
MRT [1, 7]: 7.19 h
whole-blood concentration [2]: about 5 ng/mL
Δ9-THC in the blood after oral CBD [3]: did not detect
concentration at 0.5 h [4, 8]: 11.9 ± 18 ng/g
concentration at 1 h [4, 8]: 11 ± 5.21 ng/g
concentration at 2 h [4, 8]: 24 ± 7.22 ng/g
concentration at 4 h [4, 8]: 26.2 ± 19.1 ng/g
concentration at 6 h [4, 8]: 10.3 ± 2.1 ng/g
concentration at 24 h [4, 8]: 0.445 ± 0.21 ng/g
concentration at 0.5 h [4, 9]: 13.1 ± 10.9 ng/g
concentration at 1 h [4, 9]: 18.5 ± 1.98 ng/g
concentration at 2 h [4, 9]: 14 ± 3.3 ng/g
concentration at 4 h [4, 9]: 8.01 ± 1.48 ng/g
concentration at 6 h [4, 9]: 9.04 ± 4.39 ng/g
concentration at 24 h [4, 9]: 3.79 ± 4.59 ng/g
concentration at 0.5 h [4, 10]: 13.1 ng/mL
concentration at 1 h [4, 10]: 18.5 ng/mL
concentration at 2 h [4, 10]: 14 ng/mL
concentration at 4 h [4, 10]: 8.01 ng/mL
concentration at 6 h [4, 10]: 9.04 ng/mL
concentration at 24 h [4, 10]: 3.79 ng/mL
concentration at 0.5 h [4, 11]: 11.9 ng/mL
concentration at 1 h [4, 11]: 11 ng/mL
concentration at 2 h [4, 11]: 24 ng/mL
concentration at 4 h [4, 11]: 26.2 ng/mL
concentration at 6 h [4, 11]: 10.3 ng/mL
concentration at 24 h [4, 11]: 0.445 ng/mL
AUC(0-t) ([4]; Cremophor): 217 ng·h/mL
AUC(0-t) ([4]; Rapae oleum): 186 ng·h/mL
Cmax ([4]; Cremophor): 18.5 ng/mL
Cmax ([4]; Rapae oleum): 26.2 ng/mL
MRT ([4]; Cremophor): 12.7 h
MRT ([4]; Rapae oleum): 5.75 h
Tmax ([4]; Cremophor): 1 h
Tmax ([4]; Rapae oleum): 4 h
CL ([4]; Cremophor): 2.18 L/h
Vd ([4]; Cremophor): 28.26 L
CL ([4]; Rapae oleum): 2.56 L/h
Vd ([4]; Rapae oleum): 15.15 L
Δ9-THC after oral CBD [5]: did not detect
